In patent US20080312330A1, “Methods for Reducing Mortality and Morbidity by Postoperative Administration of a Pharmacologic Cardiovascular Agent” (priority 1996, published 2008):
“And” between values parts separate entries of the source, which are not always exact repeats. Equal values may be shown once.

Legend:
[1] = tested on: patients with, or at risk for coronary artery disease and scheduled for elective noncardiac surgery; assay: Randomized, blinded, placebo-controlled trial: mortality and cardiovascular outcomes over two years following noncardiac surgery; type: in vivo
Text: Eligible patients included those with, or at risk for coronary artery disease and scheduled for elective noncardiac surgery requiring general anesthesia at the San Francisco Veterans Affairs Medical Center. The specific inclusion and exclusion criteria have been described previously (Mangano et al., 1990, N. Eng. J. Med. 323:1781-1788; Mangano et al., 1992, JAMA 268:233-239).
(§1) Patients were randomized to receive either atenolol “TENORMIN” (Zeneca Pharmaceuticals) or placebo prior to induction of anesthesia, immediately following surgery, and daily throughout their hospitalization (up to 7 days). Drug assignment, study physicians, treating clinicians, and data analysis personnel were blinded to study group throughout all phases of this trial.
(§2) Intravenous preparation consisted of two-10-ml syringes, each containing 5 mg atenolol or placebo; oral preparation consisted of two 50 mg tablets of atenolol, or two placebo tablets. Approximately one hour prior to surgery, patients entered the preoperative area and blood pressure was recorded with an automated cuff and 5-lead continuous electrocardiograph. Thirty-minutes prior to entry into the operating room, intravenous administration of study drug began. Exclusion criteria for study drug administration were heart rate <55 bpm, systolic blood pressure <100 mm Hg, or evidence of congestive heart failure, third degree heart block, or bronchospasm (ISIS-I protocol, 1986, Lancet 2:56-66). […] Immediately following surgery, the study drug was again given using the identical technique applied prior to surgery. On the morning of the first postoperative day, and daily thereafter until the patient was discharged from the hospital (up to a maximum of seven days), patients received study drug every 12 hours using the same technique for intravenous infusion, or orally (if able) at which time a tablet of atenolol (0, 50 or 100 mg) or placebo was given daily. If heart rate was >65 bpm and systolic blood pressure >100 mm Hg, 100 mg atenolol (or placebo) was given orally; if heart rate was >55 but <65 bpm and systolic blood pressure >100 mm Hg, 50 mg atenolol (or placebo) was administered; if heart rate was <55 bpm or systolic blood pressure <100 mm Hg, 0 mg atenolol (or placebo) was given. No treating clinician was allowed to observe study drug administration either prior to, or after, surgery.
(§3) All patients received general anesthesia with endotracheal intubation; preoperative medications were continued until the time of surgery, with beta-blockers replaced by study drug on the morning of surgery. There were no other protocol-based restrictions of anesthetic or surgical technique, and clinical decisions were not controlled by study protocol. Perioperative information was recorded and analyzed for possible confounding effects, and included: type and duration of surgery, anesthetic techniques, fluid and blood loss and replacement, cardiovascular medications, hemodynamics, electrocardiographic data, and adverse events.
At six months, one year and two years following surgery, study physicians conducted scheduled research study visits that were independent of usual clinical care.

[2] = tested on: patients with, or at risk for coronary artery disease and scheduled for elective noncardiac surgery; assay: Same trial: in-hospital tolerance, hemodynamics and in-hospital deaths during study drug administration
Method: as §1, §2, §3
At six months, one year and two years following surgery, study physicians conducted scheduled research study visits that were independent of usual clinical care. Data collected during each visit included history and physical examination, a 12-lead electrocardiogram, and review of all medical records, medications and hospital admissions. Cardiac death was diagnosed if the patient died of either a myocardial infarction, dysrhythmia or congestive heart failure caused primarily by a cardiac condition.

[3] = long-term deaths, one line per patient of the atenolol group

For `CC(C)NCC(O)COc1ccc(CC(N)=O)cc1` (stereo not drawn) [atenolol], which “HAZARDS RATIO, two-year mortality, multivariate models” value ([1]; Cox multivariate, 30 deaths among 200 patients) is on record?
The value was 0.5.

And the “HAZARDS RATIO, two-year mortality, univariable models” value ([1]; Cox univariable, 30 deaths among 200 patients)?
The value was 0.4.

What about the “hazard ratio, survival in diabetics at two years” value ([1]; diabetics, two years, P=0.03) of the same compound?
Its value is 0.25.

And the “improvement of survival in diabetics at two years” value ([1]; diabetics, two years, P=0.03)?
The value was “approximately 75%”.

What about the “deaths over the first 6-8 months” value ([1]; first 6-8 months, noncardiac, placebo 10 deaths with 7 cardiac-related, P<0.001) of the same compound?
The value was “one”.

What about the “CAUSE OF DEATH” value [1, 3] of the same compound?
The value was “Respiratory failure and Ventricular tachycardia and Severe CAD, sepsis and Sepsis, ALS and Metastatic renal CA and CHF post CABG and ARDS and Cardiac arrest, lung CA and Metastatic squamous cell CA, larynx, lung”.

What about the “TIME TO DEATH” value [1, 3] of the same compound?
The value was 237 days and 295 days and 327 days and 385 days and 416 days and 481 days and 529 days and 582 days and 656 days.

What about the “decrease in the rate of cardiac events within one year” value ([1]; one year, versus placebo) of the same compound?
The value was 3 fold.

And the “cardiac events within one year following surgery” value ([1]; one year, placebo 22 patients, P=0.003)?
Its value is 7 patients.

And the time-to-first adverse event ([1]; placebo group 6 days)?
Its time-to-first adverse event is 158 days.

And the “time to first death” value ([1]; placebo group 19 days)?
The value was 237 days.

What about the “cardiac events within six months following surgery” value ([1]; six months, placebo 12 patients, P<0.001) of the same compound?
The value was 0 patients.

And the “cardiovascular event-free survival of patients (FIG. 2)” value ([1]; two years after surgery)?
Its value is “increases cardiovascular event-free survival of patients for two years after surgery”.

And the “survival of patients (FIG. 1)” value ([1]; two years after surgery)?
Its value is “increases the survival of patients for two years after surgery”.

What about the “decrease in the rate of cardiac events within two years” value ([1]; two years, versus placebo) of the same compound?
Its value is 2 fold.

What about the “reduction in all-cause mortality” value ([1]; two years, versus placebo, P=0.019) of the same compound?
Its value is 57%.

And the “reduction in cardiac mortality” value ([1]; two years, versus placebo, P=0.033)?
The value was 67%.

And the “cardiac-related deaths over the two-year outcome period” value ([1]; two years, placebo 12 cardiac)?
Its value is 4 deaths.

What about the “deaths (all-cause) over the two-year outcome period” value ([1]; two years, placebo 21 deaths, P=0.019) of the same compound?
Its value is 9 deaths.

What about the “cardiac events within two years following surgery” value ([1]; two years, placebo 32 patients, P=0.008) of the same compound?
The value was 16 patients.

What about the “noncardiac deaths secondary to metastatic cancer during hospitalization” value ([2]; during hospitalization) of the same compound?
The value was “two”.

What about the “noncardiac deaths with pulmonary failure secondary to massive infusion for fluid loss during hospitalization” value ([2]; during hospitalization) of the same compound?
Its value is “one”.

What about the “cardiac deaths secondary to myocardial infarction during hospitalization” value ([2]; during hospitalization, placebo two) of the same compound?
Its value is “one”.

What about the “average heart rate during treatment” value ([2]; during treatment, placebo 87 bpm, P<0.001) of the same compound?
Its value is 75 bpm.

What about the “maximum heart rate during treatment” value ([2]; during treatment, placebo 130 bpm, P<0.001) of the same compound?
The value was 113 bpm.

What about the “patients tolerating the full dose” value ([2]; human, in vivo) of the same compound?
The value was “more than 60%”.

And the “patients who tolerated administration” value ([2]; human, in vivo)?
Its value is “More than 85%”.

And the “patients with 20% or more decrease in systolic blood pressure or heart rate” value ([2]; human, in vivo, iv)?
Its value is “approximately 10%”.

What about the “patients who developed systolic blood pressure <90 mm Hg or heart rate <40 bpm, or required therapy” value ([2]; in vivo, iv) of the same compound?
The value was “no patient”.

And the “incidence of hypotension or bradycardia, or other events” value ([2]; in vivo, po)?
Its value is “not associated with an increased incidence”.
